# Patent US3931147A, “Water-soluble derivatives of sodium mannoheptonate” (International Telephone and Telegraph Corporation, priority 1973, dated 1976)
# Assay: Swelling of clay in water: viscosity and gel strength of sodium bentonite dispersion
# Conditions: in words
# Description: Additional tests were conducted to determine the utility of the metal complexes of the invention on the swelling of clay in water. 6 grams of the product were dissolved in 300 ml. of distilled water, and the pH of the solution was adjusted to 10.5 with sodium hydroxide. 30 grams of sodium bentonite were then added and the mixture was bottled and rolled 16 hours at 70°C. Viscosity and gel strengths were then determined using a Fann model 35 viscometer. Lowered viscosity and gels indicate decreased swelling and viscosity building.
substance,measurement,value
aluminum,inhibiting the swelling of bentonite clays,most effective
